Laboratory results from US20120277171A1, “Warmi®, natural alternative for the treatment of menopause” (priority 2011, published 2012).

Assays:
[1] = Clinical trial: anthropometric parameters and vital signs; type: in vivo, human; details: mean ± SD
Description: (§1) Prospective, longitudinal, double blind, three stage, comparative clinical and laboratory evaluation trials on symptomatic postmenopausal women who attended the menopause medical units of the Hospital Nacional Cayetano Heredia, Hospital Nacional Arzobispo Loayza, Hospital Docente Madre Niño San Bartolomé and the medical unit of the Universidad Nacional Agraria La Molina.
(§2) Warmi® capsules (510 mg) were manufactured by Laboratorios Hersil S.A. Capsules were manufactured following Good Manufacturing Practices (GMP) and following the Hazard Analysis and Critical Control Points (HACCP). Warmi® is a natural proprietary blend composed of β-sitosterol, glucosinolates and citrus flavonoids (hesperidin). […] Patients received 3 capsules a day to be taken every 6 hours.
Tibolone was used as HRT. Tibolone was masked in a capsule with the same appearance as the previous groups. Patients received 3 capsules a day to be taken every 6 hours. Tibolone is the latest treatment for menopausal symptoms in Peru. Tibolone is a synthetic steroid with estrogenic, progestogenic and androgenic activity, used for the treatment of menopausal symptoms and post-menopausal osteoporosis. It has been observed that Tibolone reduces the level of triglycerides, HDL, total cholesterol and with no effect on the LDL.
The sample group was integrated by symptomatic postmenopausal women who attend the menopause centers of the participating hospitals. 135 participants were accepted in the study and each hospital recruited the patients that were randomly assigned to the three treatment groups: Warmi®, Tibolone and placebo.
The statistical analysis was done using a SPSS statistical package (version 11.0). […] The variables were analyzed as a change in relation to the basal level and compared by treatment groups.

[2] = human, in vivo
Description: as §1, §2
Tibolone was used as HRT. Tibolone was masked in a capsule with the same appearance as the previous groups. Patients received 3 capsules a day to be taken every 6 hours. […]
The statistical analysis was done using a SPSS statistical package (version 11.0). The results were expressed as a mean±standard error (SE), and a p<0.05 was considered significant. The variables were analyzed as a change in relation to the basal level and compared by treatment groups.
There was a small decrease in the hematocrit (1.43%) of the placebo group. […] Upon observing the other quantifiable parameters, no significant changes are noticed.

[3] = tested on: FSH, LH, estradiol, progesterone and DHEAS; assay: Clinical trial: hormone count in serum (immunochemical luminescence); type: in vivo, human; details: for reduction of FSH: FIG. 2
Description: Laboratory tests were requested prior to the beginning of the treatments (basal levels) and after 3 and 6 months. The levels of the following hormones were measured in the Laboratory of the Molecular Biotechnology Unit of the Research and Development Laboratories of the Universidad Peruana Cayetano Heredia: FSH, LH, estradiol, progesterone and DHEAS. The following normal menopausal values shall be considered: FSH of between 25.0 and 134.8 mlU/mL, LH of between 7.7 and 58.5 mlU/mL, estradiol between <10.0 and 39.5 pg/mL and progesterone between 0.20 and 1.00 ng/mL.
In order to determine the hormonal levels, a peripheral blood test was taken from each patient on an empty stomach and the serum FSH, LH, estradiol, progesterone and DHEAS levels were taken using the immunochemical luminescence method, following the standardized procedures of the laboratory.

[4] = tested on: triglycerides (TG), total cholesterol (TC), HDL, LDL and serum glucose levels; assay: Clinical trial: lipids and glucose count; type: in vivo, human
Description: The triglycerides (TG), total cholesterol (TC), HDL, LDL and serum glucose levels (Valtek S.A.) were measured based on a peripheral blood test prior to the start of the treatment, at months 1, 3 and 6 following treatment. TG, TC and HDL levels were measured with a MicroLab semiautomatic analyzer, through an enzymatic colorimetric technique, using the manufacturer's manual and procedures. Normal values shall be TC<200 mg/dL, HDL>35 mg/dL, LDL<130 mg/dL and TG<170 mg/dL.

[5] = tested on: TNF-α, INF-y and IL-6 cytokines; assay: Clinical trial: cytokine count; type: in vivo, human
Description: Peripheral blood samples were obtained in vacutainer test tubes with anticoagulant (Becton Dickenson, BD). The biological sample was previously centrifuged and stored at a −70° C. for the respective cytokine count. Type Th1: TNF-α, INF-y and Th2: IL-6 cytokines were counted. The manufacturer's instructions were followed and the cytokine concentrations were calculated according to the specifications (Pharmingen, BD). Cytokines were measured prior to and upon conclusion of the treatment.
(§3) The levels of cytokines, osteocalcin, growth hormone and C-reactive protein were measured in the Laboratory of the Molecular Biotechnology Unit of the Research and Development Laboratories of the Universidad Peruana Cayetano Heredia (UPCH). All laboratory procedures were conducted in duplicate, standards were used to ensure the reproducibility and quality of the results.

[6] = tested on: human osteocalcin; assay: Clinical trial: plasma osteocalcin (EASIA); type: in vivo; details: after 6 months of treatment; FIG. 13
Description: Plasma osteocalcin was measured through the EASIA technique (Enzyme Amplified Sensitivity Immunoassay) using monoclonal antibodies against different epitopes of human osteocalcin (Biosource International, Inc., USA), with a sensitivity of 0.4 ng/mL. Human osteocalcin was measured at the beginning of the treatment and after 6 months of treatment, according to the manufacturer's instructions.
as §3

[7] = tested on: C-reactive protein; assay: Clinical trial: C-reactive protein (ELISA); type: in vivo, human; details: after 6 months of treatment
Description: C-reactive protein from human plasma (Diagnostic Automation Inc., USA) was tested with a very sensitive ELISA using a monoclonal antibody against a different antigenic determinant on the C-Reactive Protein molecule, with a sensitivity of […]. C-reactive protein (CRP) was measured prior to treatment and after 6 months of treatment, according to the manufacturer's instructions.
as §3

[8] = tested on: symptomatic postmenopausal women; assay: Greene Climateric Scale; type: in vivo, human; details: FIGS. 31-35
Text: The changes are observed in sub-categories of Anxiety, Depression, Vasomotor Symptoms and Sexual Aspects.

With `C#C[C@]1(O)CC[C@H]2[C@@H]3[C@H](C)CC4=C(CCC(=O)C4)[C@H]3CC[C@@]21C` [Tibolone] the “Diastolic BP” value ([1]; 3rd Month) was 72.5 ± 10.83, the “Heart Rate” value ([1]; 3rd Month) was 63.66 ± 1.96 and the “Pulse Pressure” value ([1]; 3rd Month) was 64 ± 1.78. For the same compound, the “Respiratory Rate” value ([1]; 3rd Month) was 16.33 ± 0.98, the “Systolic BP” value ([1]; 3rd Month) was 113.33 ± 8.16 and the “Diastolic BP” value ([1]; 6th Month) was 73.16 ± 11.4. For the same compound, the “Heart Rate” value ([1]; 6th Month) was 62.67 ± 2.42, the “Pulse Pressure” value ([1]; 6th Month) was 62.67 ± 2.42 and the “Systolic BP” value ([1]; 6th Month) was 110 ± 8.98. For the same compound, the “Respiratory Rate” value ([1]; 6th Month, *p ≦ 0.05) was 16.16 ± 0.41, the “increase in the hematocrit” value [2] was 3.53% and the “reduction of FSH” value ([3]; month six of treatment) was 16.20%. For the same compound, the “reduction of FSH” value ([3]; month three of treatment) was 29.58%, the “drop of DHEAS in serum” value ([3]; month three, FIG. 3) was 12.87% and the decrease of progesterone ([3]; month three, FIG. 4) was 29.70%. For the same compound, the “effect on triglycerides levels (in words)” value ([4]; FIG. 8) was “significant decrease”, the “effect on HDL levels (in words)” value ([4]; FIG. 9, Tibolone: after 1, 3 and 6 months of treatment) was “significant reduction” and the “effect on LDL levels (in words)” value ([4]; FIG. 10) was “significant reduction”. The “effect on LDL/HDL ratio (in words)” value ([4]; FIG. 12, Tibolone: after six months, Warmi: after both 3 and 6 months) was “reduction”, the “reduction of total cholesterol” value ([4]; after six months of treatment, FIG. 7) was 12.37% and the “reduction in the level of glycemia” value ([4]; at the end of the study, FIG. 6) was 7.39%. The “effect on interferon gamma (INF-y) (in words)” value ([5]; FIG. 16, none were significant) was “slight increases”, the “effect on Interleukin 6 (IL-6) levels (in words)” value ([5]; FIG. 17, Tibolone: after 3 months alone, Warmi: after both treatment periods) was “significantly reduced” and the “effect on osteocalcin levels (in words)” value [6] was “significant reduction”. The “increase of CRP (change in percentage)” value [7] was 26.83% and the “Greene survey: sub-categories Anxiety, Depression, Vasomotor Symptoms and Sexual Aspects (in words)” value [8] was “Changes were also observed”.
